Reference: patent US8153142B2, “Skin treatment composition” (Shiseido Co., Ltd., priority 2001, dated 2012)

Experiments:
[1] = tested on: human skin (forearms of 10 panelists); test: Conductance measuring test; format: in vivo; settings: for Conductance 30 min-after / Conductance 60 min-after / Conductance 120 min-after: 10% aqueous solution; for Conductance 30 min-after: 30 minutes after application; for Conductance 60 min-after: 60 minutes after application; for Conductance 120 min-after: 120 minutes after application
Experimental: (i) Conductance Measuring Test
Using forearms of 10 panelists, the skin conductance was measured before application and for 30 minutes, 60 minutes and 120 minutes after application, and the moisturizing effect was evaluated from a change rate thereof. The change rate of the skin conductance is calculated by the following equation (II): Conductance change rate=[…].
The change rate can be used for study of the influences on a water-absorbing property and a moisture retaining ability of a keratin layer. When this change rate is small, there is increase in the moisture in a keratin layer, thus, it can be evaluated that the moisturizing effect is high.
The evaluation criteria of conductance measuring test is as follows: • {circumflex over (◯)}: The average of conductance change rate of 10 panelists is not less than 0 and less than 0.1 • ◯: The average of conductance change rate of 10 panelists is not less than 0.1 and less than 0.2 • Δ: The average of conductance change rate of 10 panelists is not less than 0.2 and less than 0.5 • X: The average of conductance change rate of 10 panelists is not less than 0.5

[2] = tested on: human skin (medial parts of brachiums); test: Evaluation No.(7): Skin Stimulation Test B (smart feeling); format: in vivo
Experimental: (viii) Evaluation No.(7): Skin Stimulation Test B
A smart feeling when a sample applied on medial parts of brachiums of 10 panelists was graded based on the following criteria and, thereafter, an average was calculated: • 0: No smart feeling is perceived. • 1: Slight smart feeling or redness is perceived. • 2: Smart feeling or redness is perceived. • 3: Smart feeling and redness are perceived.
The evaluation criteria of skin stimulation test B is as follows: • {circumflex over (◯)}: The average of 10 panelists is not less than 0 and less than 0.1 • ◯: The average of 10 panelists is not less than 0.1 and less than 0.15 • Δ: The average of 10 panelists is not less than 0.15 and less than 0.2 • X: The average of 10 panelists is not less than 0.2

[3] = tested on: human skin; test: Evaluation No.(8): Refreshing Effect Durability; format: in vivo; settings: for Refreshing feeling (8): basic composition B
Experimental: (ix) Evaluation No.(8): Refreshing Effect Durability A presence or absence of refreshing feeling for 120 minutes after use was evaluated by 10 special panelists. The evaluation criteria is as follows: • {circumflex over (◯)}: Not less than 8 special panelists recognized that there was refreshing feeling durability. • ◯: Not less than 6 and less than 8 special panelists recognized that there was refreshing feeling durability. • Δ: Not less than 3 and less than 6 special panelists recognized that there was refreshing feeling durability. • X: Less than 3 special panelists recognized that there was refreshing feeling durability.

[4] = tested on: human skin; test: Evaluation No.(3): Moisturizing Effect Feeling; format: in vivo; settings: compound 5% by weight in basic composition A
Experimental: (iv) Evaluation No.(3): Moisturizing Effect Feeling Practical test on the presence or absence of the moisturizing effect feeling for 120 minutes after use was performed by using 10 special panelists. The evaluation criteria is as follows: • {circumflex over (◯)}: Not less than 8 special panelists recognized that there was the moisturizing effect feeling. • ◯: Not less than 6 and less than 8 special panelists recognized that there was the moisturizing effect feeling. • Δ: Not less than 3 and less than 6 special panelists recognized that there was the moisturizing effect feeling. • X: Less than 3 special panelists recognized that there was the moisturizing effect feeling.

[5] = tested on: rough skin on cheek; test: Evaluation No.(4): Rough Skin Improving Effect Test; format: in vivo, human; settings: compound 5% by weight in basic composition A
Experimental: (v) Evaluation No.(4): Rough Skin Improving Effect Test A rough skin improving effect test was performed by using 10 panelists having rough skin on cheek. According to a test schedule, different skin lotions were applied on left and right cheeks for 1 week, and the effect was determined on the next day after the last day of the test period. The evaluation criteria is as follows: • {circumflex over (◯)}: Not less than 8 panelists recognized that the rough skin was improved. • ◯: Not less than 6 and less than 8 panelists recognized that the rough skin was improved. • Δ: Not less than 3 and less than 6 panelists recognized that the rough skin was improved. • X: Less than 3 panelists recognized that the rough skin was improved.

[6] = tested on: human skin (medial parts of brachiums); test: Evaluation No.(5): Skin Stimulation Test A (occluding patch); format: in vivo; settings: compound 5% by weight in basic composition A
Experimental: (iv) Evaluation No.(5): Skin Stimulation Test A
Occluding patch was performed on medial parts of brachiums of 10 panelists for 24 hours and, thereafter, an average was calculated based on the following criteria: • 0: No abnormality is perceived. • 1: Slight redness is perceived. • 2: Redness is perceived. • 3: Redness and papula are perceived.
The evaluation criteria of skin stimulation test A is as follows: • {circumflex over (◯)}: The average of 10 panelists is not less than 0 and less than 0.1 • ◯: The average of 10 panelists is not less than 0.1 and less than 0.15 • Δ: The average of 10 panelists is not less than 0.15 and less than 0.2 • X: The average of 10 panelists is not less than 0.2

Row | Molecule | Conductance 30 min-after [1] | Conductance 60 min-after [1] | Conductance 120 min-after [1] | Evaluation in conductance measuring (120 min after) ([1]; Table 7, 5% alone in ion-exchange water 95%) | Stimulation B (7) ([2]; Table 11, tested compound 5.0 wt % in basic composition B (L-menthol 0.1)) | Refreshing feeling durability (8) ([3]; Table 11, tested compound 5.0 wt % in basic composition B (L-menthol 0.1), 120 minutes after use) | Moisturizing Evol. No. (3) ([4]; Table 2, 120 minutes after use) | Evaluation (3) moisturizing effect feeling ([4]; Table 4) | Rough skin Evol. No. (4) ([5]; Table 2, applied 1 week) | Evaluation (4) rough skin improving effect ([5]; Table 4) | Stimulation A Evol. No. (5) ([6]; Table 2, occluding patch 24 hours) | Evaluation (5) skin stimulation A ([6]; Table 4) | Stimulation B (7) ([2]; Table 12, basic composition B, tested compound 5.0 wt %) | Stimulation B (7) ([2]; Table 13, Y/X study, basic composition B) | Stimulation B (7) ([2]; Table 14, basic composition B, tested compound 5.0 wt %) | Refreshing feeling (8) ([3]; Table 12, tested compound 5.0 wt %) | Refreshing feeling (8) ([3]; Table 13, Y/X study) | Refreshing feeling (8) ([3]; Table 14, tested compound 5.0 wt %)
1 | CC(O)CCO (stereo not drawn) [1,3-Butylene glycol] | Δ (The average of conductance change rate of 10 panelists is not less than 0.2 and less than 0.5) | Δ (The average of conductance change rate of 10 panelists is not less than 0.2 and less than 0.5) | Δ (The average of conductance change rate of 10 panelists is not less than 0.2 and less than 0.5) | – | – | – | – | – | – | – | – | – | – | – | – | – | – | –
2 | OCC(O)CO [Glycerin] | ⊚ (The average of conductance change rate of 10 panelists is not less than 0 and less than 0.1) | ◯ (The average of conductance change rate of 10 panelists is not less than 0.1 and less than 0.2) | ◯ (The average of conductance change rate of 10 panelists is not less than 0.1 and less than 0.2) | Δ (The average of conductance change rate of 10 panelists is not less than 0.2 and less than 0.5) | Δ (The average of 10 panelists is not less than 0.15 and less than 0.2) | X (Less than 3 special panelists recognized that there was refreshing feeling durability.) | – | – | – | – | – | – | – | – | – | – | – | –
3 | Polyoxyethylene (10) polyoxypropylene (10) dimethyl ether [Compound 2] | – | – | – | – | – | – | ⊚ (Not less than 8 special panelists recognized that there was the moisturizing effect feeling.) | ⊚ (Not less than 8 special panelists recognized that there was the moisturizing effect feeling.) | ⊚ (Not less than 8 panelists recognized that the rough skin was improved.) | ⊚ (Not less than 8 panelists recognized that the rough skin was improved.) | ⊚ (The average of 10 panelists is not less than 0 and less than 0.1) | ⊚ (The average of 10 panelists is not less than 0 and less than 0.1) | ⊚ (The average of 10 panelists is not less than 0 and less than 0.1) | ⊚ (The average of 10 panelists is not less than 0 and less than 0.1) | ⊚ (The average of 10 panelists is not less than 0 and less than 0.1) | ⊚ (Not less than 8 special panelists recognized that there was refreshing feeling durability.) | ⊚ (Not less than 8 special panelists recognized that there was refreshing feeling durability.) | ⊚ (Not less than 8 special panelists recognized that there was refreshing feeling durability.)
